How the values were obtained:
[1] = tested on: Plasmodium falciparum NF54 strain; assay: primary screening of antimalarial activity, Plasmodium falciparum NF54 strain; assay type: cell-based; conditions: for antimalarial activity compared with the regioisomer (potency and specificity): NF54 strain versus rat L6 myoblasts, MR00418 vs MR00397, MR00419 vs MR00407; for IC50: Plasmodium falciparum NF54 strain, first primary screening
[2] = tested on: rat L6 myoblast cell line; assay: primary screening on the rat L6 myoblast cell line (specificity/cytotoxicity); assay type: cell-based; conditions: first primary screening

Row | IC50 [1] [µM] | SMILES | antimalarial activity compared with the regioisomer (potency and specificity) [1] | IC50 [2] [µM]
1 | 0.006 | CC1=C(Cc2ccc(C(F)(F)F)nc2)C(=O)c2ccccc2C1=O [MRO0418, 2-methyl-3-((6-(trifluoromethyl)pyridin-3-yl)methyl) naphthalene-1,4-dione] | more potent and specific antimalarial activities than the regioisomers | 179
2 | 0.065 | CC1=C(Cc2cnc(C(F)(F)F)nc2)C(=O)c2ccccc2C1=O [MRO0419, 2-methyl-3-((2-(trifluoromethyl)pyrimidin-5-yl)methyl) naphthalene-1,4-dione] | more potent and specific antimalarial activities than the regioisomers | 48.3
